# Experimental data as given in patent publication US6783558B2, “Hair coloring method and composition” (Kao Corporation, priority 2001, dated 2004).
# How the values were obtained:
# [1] = Dyeing of undamaged white goat tress with general composition, Examples 7-15; conditions: 0.02 g dyestuff in 10 g general composition (Table 6), 20 mins at 50° C
# Method: the following general composition was prepared for each of pyrazolotriazole direct dyes DS-3, DS-4, DS-6, DS-7 and DS-12 to DS-16. Each composition was applied to one undamaged white goat tress for 20 mins at 50° C. (1 g of tress was covered by 1.5 to 2 g of composition). After 20 mins the tresses were rinsed, shampoo washed and then dried before the colour was assessed.
# [2] = Compatibility with hydrogen peroxide, Examples 18-21; design: species or system human; conditions: for Delta a (change in red colour): 0.02 g dyestuff in 10 g, undamaged human blond hair, 20 mins at 50° C; for stability to alkaline peroxide: composition with ammonia and hydrogen peroxide
# Method: The following general compositions in Table 10 were prepared for each of pyrazolotriazole direct dyes DS-4 and DS-6.
# Each composition was applied to one undamaged human blond hair for 20 mins at 50° C. After 20 mins the tresses were rinsed, shampoo washed and then dried before the colour was assessed.
# [3] = Measurement of pKa value by spectrophotometric titration; assay type: physicochemical; conditions: DMF/water (1/1) solution, 2×10^−5 mol/l, titrated from pH 2 with NaOH, visible ultra-violet absorption spectrum, read-out: pKa value determined
# Method: The dissociative dye represents the dye that can release a proton and be anionic above a certain pH value. The pKa value can be determined by the following method: The sample is dissolved in a solution of a DMF/water (1/1) volume ratio to a final concentration of 2×10^−5 mol/l. After the resulting solution is adjusted to pH 2, using 1.0 mol/l hydrochloric acid, the solution is titrated with aqueous 1.0 mol/l sodium hydroxide solution. Recording the change of the visible ultra-violet absorption spectrum, the inflection point is determined by regression analysis.
# pKa values of the dyestuffs DS-3 to DS-6, DS-7 and DS10 were determined by the following method: The dye was dissolved in a solution of a DMF/water (1/1) volume ratio to a final concentration of 2×10^−5 mol/l. After the resulting solution was adjusted to pH 2, using 1.0 mol/l hydrochloric acid, the solution was titrated with aqueous 1.0 mol/l sodium hydroxide solution. Recording the change of the visible ultra-violet absorption spectrum, the inflection point was determined by regression analysis.
stability to alkaline peroxide [2],pKa [3],SMILES,Colouring Result [1],Delta E [1],L [1],a [1],b [1],Delta a (change in red colour) ([2]; H2O2 3 wt %),Delta a (change in red colour) ([2]; H2O2 None)
stable to alkaline peroxide,–,Cc1nnc2n1N=C(C(C)(C)C)/C2=N/c1cc(Cl)c(O)c(Cl)c1 [DS-6],Bright pink,55,57,42,−7,30,15
–,3.78,CC1=Nn2nc(C)nc2/C1=N\c1cc(Cl)c(O)c(Cl)c1 [DS-3],"Bright, intense magenta",81,30,54,−12,–,–
stable to alkaline peroxide,3.88,Cc1nc2n(n1)N=C(C(C)(C)C)/C2=N/c1cc(Cl)c(O)c(Cl)c1 [DS-4],"Bright, intense magenta",75,38,60,16,39,27
–,–,CSc1nnc2n1N=C(c1ccccc1)/C2=N/c1cc(Cl)c(O)c(Cl)c1 [DS-12],Violet,59,48,29,−26,–,–
–,–,CC(C)(C)C1=Nn2nc(-c3ccc(NS(C)(=O)=O)cc3)nc2/C1=N\c1cc(Cl)c(O)c(Cl)c1 [DS-16],Bright pink,52,55,41,−3,–,–
–,3.38,CC1=Nn2nc(C(C)CN)nc2/C1=N\c1cc(Cl)c(O)c(Cl)c1 (stereo not shown) [DS-10],–,–,–,–,–,–,–
–,3.92,CC(C)c1nc2n(n1)N=C(C(C)(C)C)/C2=N/c1cc(Cl)c(O)c(Cl)c1 [DS-7],Pink,60,50,50,−8,–,–
–,4.34,CC1=Nn2c(C)nnc2/C1=N\c1cc(Cl)c(O)c(Cl)c1 [DS-5],–,–,–,–,–,–,–
–,–,CC(C)c1nc2n(n1)N=C(c1ccccc1Cl)/C2=N/c1cc(Cl)c(O)c(Cl)c1 [DS-15],Violet,55,51,33,−17,–,–
